Experiment [1] can be described thus: Luminescence Cell-Based Dose Response HTS to Identify Activators of Luciferase Translation or Activity in H4 […] Cells. [Related pubchem assays: 1829 (Project Summary), 1814 (Primary HTS)]. It is filed as functional.
The next experiment has as its system H4. Put plainly: Luminescence Cell-Based Dose Response HTS to Identify Activators of 5'UTR Stem-Loop Driven Prion Protein mRNA Translation in H4 Neuroglioblastoma Cells. [Related pubchem assays: 1829 (Project Summary), 1814 (Primary HTS)]. In kind it is functional. Conditions: Homo sapiens.
Another experiment has as its system HeLa. Put plainly: HeLa cell cytotoxicity, dose response, cytotoxicity control for MITF activator project, CellTiter-Glo luminescence, cherry-pick samples (AID 540259). The settings on record: Homo sapiens. It is filed as functional, cell-based.
Experiment [2] in a line: Luminescence Cell-Based Dose Confirmation HTS to Identify Activators of 5'UTR Stem-Loop Driven Alpha-Synuclein mRNA Translation in H4 Neuroglioblastoma Cells. [Related pubchem assays: 1829 (Project Summary), 1814 (Primary HTS)]. In kind it is functional.
Experiment [3] is described as follows: NIH-3T3 fibroblast cytotoxicity, dose response, cytotoxicity control, cell-based, fluorescence, Alamar Blue, secondary assay (AID 2327).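 Also: NIH-3T3 mouse fibroblasts cultured with fluconazole at 8 µg/mL.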 In kind it is functional.
A short description of experiment [4]: Luminescence Cell-Based Dose Retest to Confirm Inhibitors of Cancer Stem Cells. [Related pubchem assays (depositor defined):AID2717, AID2721]. It is filed as functional. The settings on record: Homo sapiens.
Experiment [5] addresses ATP-dependent molecular chaperone HSP82 (Candida albicans (strain WO-1) (Yeast), UniProt C4YTQ8). As to the kind of experiment: loss of DOC-induced GRE-beta-galactosidase reporter signal, dose response, Hsp90 inhibitor project, S. cerevisiae, luminescence (AID 2400).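 Also: beta-galactosidase luminescence from glucocorticoid response element reporter as proxy for Hsp90 function; inhibitor potency where signal loss means Hsp90 inhibition.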 It is filed as functional, cell-based.
Experiment [6] is described as follows: C. albicans growth with fluconazole, confirmation, fluorescence, retest (AID 2467). In kind it is functional, cell-based.
For experiment [7], the target named is T1, Serine/threonine-protein phosphatase (Candida dubliniensis (strain CD36 / CBS 7987 / NCPF 3949 / NRRLY-17841) (Yeast), UniProt B9W6M3).
T1 sequence (B9W6M3 whole entry): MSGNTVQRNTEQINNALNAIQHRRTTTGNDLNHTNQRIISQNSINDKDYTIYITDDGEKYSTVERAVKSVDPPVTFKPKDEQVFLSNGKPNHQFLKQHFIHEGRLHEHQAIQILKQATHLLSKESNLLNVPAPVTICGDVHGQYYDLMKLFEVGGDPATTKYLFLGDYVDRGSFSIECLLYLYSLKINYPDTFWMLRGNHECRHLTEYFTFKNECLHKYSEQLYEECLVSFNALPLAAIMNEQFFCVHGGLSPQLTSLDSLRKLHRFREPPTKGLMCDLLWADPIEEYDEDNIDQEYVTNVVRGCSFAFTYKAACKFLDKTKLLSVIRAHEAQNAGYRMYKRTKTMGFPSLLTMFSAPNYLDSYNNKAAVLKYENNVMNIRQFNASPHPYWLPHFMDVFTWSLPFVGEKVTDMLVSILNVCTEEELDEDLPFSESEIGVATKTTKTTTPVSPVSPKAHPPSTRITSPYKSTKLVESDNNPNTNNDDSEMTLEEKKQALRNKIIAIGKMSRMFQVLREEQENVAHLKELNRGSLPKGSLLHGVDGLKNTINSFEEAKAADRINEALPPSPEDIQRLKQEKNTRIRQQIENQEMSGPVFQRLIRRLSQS
Put plainly: calcineurin pathway inhibitors in yeast reporter, dose response, S. cerevisiae, CDRE-lacZ, luminescence, secondary (AID 2388).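 Also: yeast reporter cells carrying a calcineurin-responsive lacZ construct stimulated with calcium chloride; luminescent beta-galactosidase reporter signal in whole cells rather than isolated phosphatase activity; potency for inhibition where a drop in reporter signal means calcineurin blockade.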 It is filed as functional, cell-based.

Experiment [8] has as its target T2, Tyrosine-protein phosphatase non-receptor type 11 (Homo sapiens, UniProt Q06124).
T2 sequence (Q06124 whole entry): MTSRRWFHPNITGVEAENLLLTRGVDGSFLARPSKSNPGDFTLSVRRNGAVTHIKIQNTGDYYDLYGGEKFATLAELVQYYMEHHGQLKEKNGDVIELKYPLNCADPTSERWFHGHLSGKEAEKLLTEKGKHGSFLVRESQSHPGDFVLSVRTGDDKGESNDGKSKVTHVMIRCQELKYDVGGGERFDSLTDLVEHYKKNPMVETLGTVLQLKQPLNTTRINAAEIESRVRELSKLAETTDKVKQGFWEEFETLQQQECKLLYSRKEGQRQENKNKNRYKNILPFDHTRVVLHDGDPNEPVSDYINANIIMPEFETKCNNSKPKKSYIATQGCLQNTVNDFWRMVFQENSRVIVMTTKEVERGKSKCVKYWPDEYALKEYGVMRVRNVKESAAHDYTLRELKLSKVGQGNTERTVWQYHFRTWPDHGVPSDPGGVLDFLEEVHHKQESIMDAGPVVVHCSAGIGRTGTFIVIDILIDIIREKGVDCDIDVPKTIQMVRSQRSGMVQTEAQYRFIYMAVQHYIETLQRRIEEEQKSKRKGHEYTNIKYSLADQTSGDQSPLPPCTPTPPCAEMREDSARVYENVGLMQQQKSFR
As to the kind of experiment: SHP2 phosphatase inhibition, dose response, selectivity assay for STEP inhibitor project, biochemical (AID 602367). It is filed as functional. Conditions: read-out: IC50_Mean.

Experiment [9] concerns the target Dual specificity protein phosphatase 3 (Homo sapiens, UniProt P51452). As to the kind of experiment: VHR phosphatase inhibition, dose response, selectivity assay for STEP inhibitor project, biochemical (AID 602374). Conditions: read-out: IC50_Mean. In kind it is functional.
Experiment [10] concerns the target T3, Tyrosine-protein phosphatase non-receptor type 5 (Homo sapiens, UniProt P54829).
T3 sequence (P54829 whole entry): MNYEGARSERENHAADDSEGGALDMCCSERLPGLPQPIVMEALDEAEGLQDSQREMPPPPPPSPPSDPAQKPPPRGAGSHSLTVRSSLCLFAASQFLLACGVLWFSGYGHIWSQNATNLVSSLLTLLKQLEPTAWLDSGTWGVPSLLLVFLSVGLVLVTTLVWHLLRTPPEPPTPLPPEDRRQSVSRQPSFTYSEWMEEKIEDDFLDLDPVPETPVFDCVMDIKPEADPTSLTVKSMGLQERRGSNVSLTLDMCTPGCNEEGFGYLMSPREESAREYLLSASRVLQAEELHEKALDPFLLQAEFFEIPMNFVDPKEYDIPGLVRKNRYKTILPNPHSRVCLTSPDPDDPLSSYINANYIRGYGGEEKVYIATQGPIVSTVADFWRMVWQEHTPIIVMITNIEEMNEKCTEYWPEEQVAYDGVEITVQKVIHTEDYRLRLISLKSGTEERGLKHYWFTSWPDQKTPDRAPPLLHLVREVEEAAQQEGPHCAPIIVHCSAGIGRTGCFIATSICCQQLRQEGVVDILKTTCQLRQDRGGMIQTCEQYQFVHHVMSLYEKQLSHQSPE
Put plainly: STEP phosphatase inhibitors, confirmation, biochemical, fluorescence intensity, uHTS hits (AID 602372). In kind it is functional. Conditions: read-out: IC50_Mean.

The target in experiment [11] is T4, Ubiquitin-conjugating enzyme E2 N (Homo sapiens, UniProt P61088).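 Also: Dose-response confirmation in a TR-FRET assay detecting UBC13-driven polyubiquitin chain formation, inhibition measured.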
T4 sequence (P61088 whole entry): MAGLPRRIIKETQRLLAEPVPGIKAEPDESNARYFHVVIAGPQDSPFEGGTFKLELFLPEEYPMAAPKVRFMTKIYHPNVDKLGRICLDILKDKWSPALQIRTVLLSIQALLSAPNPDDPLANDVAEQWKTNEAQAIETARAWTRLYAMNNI
In kind it is functional.

The target in experiment [12] is T5, DNA repair protein RAD52 homolog (Homo sapiens, UniProt P43351).
T5 sequence (P43351 whole entry): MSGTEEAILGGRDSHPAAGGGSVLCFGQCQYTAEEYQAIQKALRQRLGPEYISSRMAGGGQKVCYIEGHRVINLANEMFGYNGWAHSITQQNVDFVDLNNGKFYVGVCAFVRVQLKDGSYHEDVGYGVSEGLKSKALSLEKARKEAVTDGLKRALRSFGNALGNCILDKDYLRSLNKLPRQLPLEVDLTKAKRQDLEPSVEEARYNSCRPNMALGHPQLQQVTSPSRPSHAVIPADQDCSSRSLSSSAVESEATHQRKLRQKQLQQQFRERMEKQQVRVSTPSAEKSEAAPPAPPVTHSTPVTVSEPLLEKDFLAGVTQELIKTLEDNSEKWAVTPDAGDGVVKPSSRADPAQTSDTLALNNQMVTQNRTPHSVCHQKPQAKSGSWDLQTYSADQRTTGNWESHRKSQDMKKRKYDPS
In kind it is functional, biochemical.

Experiment [13] is described as follows: HEp-2 cell cytotoxicity, dose response, cytotoxicity control for RSV inhibitor project, HTS (AID 2410). It is filed as functional. The settings on record: human respiratory syncytial virus.
Experiment [14] in a line: microbe, parasite or virus in culture. In kind it is functional. Conditions: Mycobacterium tuberculosis.
Experiment [15] relates to BJ. Put plainly: cytotoxicity toward BJ-TERT fibroblasts, dose response, cell-based, RAS-independent, luminescence (AID 1933). In kind it is functional. Conditions: Homo sapiens.
For experiment [16], the target named is Heat shock protein HSP 90-alpha (Homo sapiens, UniProt P07900). In kind it is functional, organism-based.
For the next experiment, the system named is INS1. Put plainly: beta cell apoptosis inhibitors, cytokine rescue, dose response, luminescence, retest (AID 449756).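 Also: cell death triggered by IL-1 beta plus TNF-alpha plus IFN-gamma mixture; protective hits raise ATP signal compared with cytokine alone wells.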 In kind it is functional, cell-based. Conditions: Rattus norvegicus.
Experiment [17] concerns BJ. As to the kind of experiment: cells. It is filed as functional, cell-based. Conditions: Homo sapiens.
In experiment [18] the test system is BJ. As to the kind of experiment: cytotoxicity toward BJ-TERT-LT-ST fibroblasts, dose response, cell-based, RAS-independent, luminescence (AID 1935).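 Also: BJ fibroblasts immortalized with TERT plus LT and ST oncogenes.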 It is filed as functional. Conditions: Homo sapiens.
Experiment [19] can be described thus: cytotoxicity toward DRD oncogenic fibroblasts, dose response, cell-based, non-viral oncogenic, luminescence (AID 1934). It is filed as functional. The settings on record: Homo sapiens.
The nature of experiment [20]: cells. In kind it is functional, cell-based.
Experiment [21] can be described thus: cells. It is filed as functional, cell-based. This is another data set of the same source.
Experiment [22] can be described thus: cytotoxicity toward NIH3T3 fibroblasts, dose response, counter-screen, cell-based, ATP luminescence, mouse fibroblasts (AID 2010).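 Also: cells exposed to compound for about 90 hours before reading.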 In kind it is functional.
Experiment [23] can be described thus: inhibitors of intracellular T. cruzi replication, confirmation, NIH3T3 host cells, beta-gal luminescence (AID 2044).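 Also: intracellular parasites grown in NIH/3T3 mouse fibroblasts as host cells; luminescent beta-galactosidase reporter signal from transgenic T. cruzi replicating inside host cells; inhibitors lower the luminescence signal.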 In kind it is functional, cell-based.

SMILES strings stand for the structures. The source made the active and inactive calls. Rule as the data show it, for most assays here: actives have a measured EC50 and inactives only a lower limit.

Chain of ATP-dependent molecular chaperone HSP82 (C4YTQ8 whole entry): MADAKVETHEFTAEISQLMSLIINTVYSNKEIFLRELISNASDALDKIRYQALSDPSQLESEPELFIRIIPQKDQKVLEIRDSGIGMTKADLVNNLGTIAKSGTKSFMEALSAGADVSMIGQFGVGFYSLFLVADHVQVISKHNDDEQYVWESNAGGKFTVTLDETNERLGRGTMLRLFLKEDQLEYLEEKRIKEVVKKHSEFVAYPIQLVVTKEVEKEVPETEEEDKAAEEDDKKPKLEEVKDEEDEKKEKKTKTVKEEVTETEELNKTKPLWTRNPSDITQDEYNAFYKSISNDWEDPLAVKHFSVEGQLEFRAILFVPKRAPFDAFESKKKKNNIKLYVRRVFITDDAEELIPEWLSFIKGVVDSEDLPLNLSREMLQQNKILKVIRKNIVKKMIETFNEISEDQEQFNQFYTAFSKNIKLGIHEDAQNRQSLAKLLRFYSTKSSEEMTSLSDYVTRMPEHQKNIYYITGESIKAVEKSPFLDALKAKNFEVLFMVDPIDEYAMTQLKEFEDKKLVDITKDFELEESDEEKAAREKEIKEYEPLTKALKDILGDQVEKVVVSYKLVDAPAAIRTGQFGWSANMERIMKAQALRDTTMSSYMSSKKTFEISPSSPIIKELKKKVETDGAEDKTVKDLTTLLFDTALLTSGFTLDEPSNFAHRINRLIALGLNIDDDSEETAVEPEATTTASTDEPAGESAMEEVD
Chain of Dual specificity protein phosphatase 3 (P51452 whole entry): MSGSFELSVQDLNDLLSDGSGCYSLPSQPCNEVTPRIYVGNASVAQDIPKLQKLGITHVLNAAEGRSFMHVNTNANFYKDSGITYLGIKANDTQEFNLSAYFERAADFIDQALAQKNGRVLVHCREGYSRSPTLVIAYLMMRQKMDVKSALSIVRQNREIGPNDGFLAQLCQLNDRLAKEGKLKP

For the compound `Cc1ccccc1C(=O)O/N=C(\N)Cc1cccs1`, the values for the EC50 (in experiment [1]; in the experiment with H4; in experiment [2]) were 67.6 µM (active), 6.9 µM (active) and > 120 µM (not active), respectively. Besides, the half-maximal activity concentration (AC50) in the experiment with HeLa is 32 µM (active).

Regarding `COc1ccc(C2=NN(c3nc4ccccc4s3)C(=O)C2)cc1`, the EC50 in [3] is > 160 µM (inconclusive); in experiment [5], 1.4 µM (active); in experiment [6], > 38000 nM (not active); in experiment [7] it was 3.92 µM (active). The AC50 in experiment [4] was 2.21 µM (active).

`NS(=O)(=O)c1ccc(NC(=S)N2CCC(Cc3ccccc3)CC2)cc1`: the IC50 in experiment [8] is 3.13 µM (active); in experiment [9], 1.03 µM (active); in [10] it was 38.8 µM (inactive).

Consider `C=CCNC(S)=Nc1sc2c(c1C(=O)OCC)CC(C)(CC)OC2` (stereo not given), for which the concentration giving a half-maximal response (EC50) was > 150 µM (inconclusive) in [3], 19.2 µM (active) in experiment [5], 889 nM (active) in [6] and > 180 µM (inactive) in [7].

For `CN(C)CCOC(=O)c1ccc2[nH]c3c(c2c1)CSCC3`, the IC50 in experiment [11] is > 20 µM (inactive). For the same compound, in [12], the half-maximal activity concentration (AC50) is 792 nM (active).

On to `O=C1NN(c2cccc(Br)c2)C(=O)/C1=C\c1ccc(N2CCOCC2)cc1`, for which the IC50 was 4.48 µM (active) in experiment [8], 2.55 µM (active) in [9] and 21.3 µM (inactive) in experiment [10].

On to `CCCn1nnc2sc3c(c2c1=O)CCC(C)C3` (stereo not given), for which the CC50 in experiment [13] was > 50 µM (active). For the same compound, the results for the concentration giving a half-maximal response (EC50) (in experiment [1]; in the experiment with H4; in [2]) were 0.528 µM (active), 16.2 µM (active) and 41.1 µM (active), respectively. In the experiment with HeLa, the AC50 is 55.9 µM (active).

Turning to `CCCCC(=O)NC(=S)Nc1cccc(NC(=O)c2ccco2)c1`, the EC50 in experiment [3] is > 150 µM (inconclusive); in [5], > 160 µM (inactive); in experiment [6], 4790 nM (active); in experiment [7], > 180 µM (inactive).

As to `C(C#CCCCCCCCCC[n+]1ccccc1)#CCCCCCCCCC[n+]1ccccc1`, the CC50 in experiment [14] is > 40 µM (active). The EC50 is > 150 µM (inactive) in experiment [3]; 2.28 µM (inconclusive) in the experiment with BJ [15]; > 150 µM (inactive) in experiment [5]; > 150 µM (inconclusive) in the experiment on BJ [17]; 50 nM (active) in experiment [6]; 6.02 µM (active) in the experiment with BJ [18]. The values for the concentration giving a half-maximal response (EC50) in [19] and in [7] were 5.68 µM (active) and > 180 µM (inactive), respectively. In addition, the AC50 in [16] was 3.58 µM (active); in the experiment with INS1, 1.67 µM (active).

On to `COc1cccc(/C=N/NC(=O)c2c(C)nc3ccc(Br)cn23)c1O`, for which the EC50 in the experiment “cells [20]” was 7.35 µM (active); in “cells [21]”, 126 µM (active); in experiment [3] it was > 160 µM (inactive); in experiment [5] it was 23.8 µM (active); in experiment [22], > 60 µM (inconclusive); in experiment [6], 483 nM (active). The EC50 in experiment [23] was 3.06 µM (active); in [7], > 180 µM (inactive). For the same compound, in the experiment with INS1, the AC50 was 0.842 µM (active).

For the origin of these results see ChEMBL document CHEMBL1201862, “PubChem BioAssay data set” (2004).
